Key:
Format in all cases: cell-based, human
[1] = system: hESC; assay: Expansion of single-cell dissociated hESC on feeder cells using protectants in the culture medium
Description: Organ culture dishes with various hESC lines (Table 1) were washed once with 1 ml PBS and then dislodged by adding ˜0.2 ml 0.05% trypsin/5 mM EDTA and incubating at 37° C. for 10 mins. After the incubation 1 ml DMEM medium containing 10% FBS was added to inhibit the trypsin, and a single cell suspension was obtained by vigorous pipetting. The cells were counted, pelleted by centrifugation at 250×g for 4 min and resuspended in 5 ml KSR medium containing 20 ng/ml bFGF and 20 μM OPH109, a potent, cell permeable inhibitor of several caspases. The cell suspension was then transferred to a T25 culture flask containing fresh, mitomycin C treated human embryonic fibroblast feeder layer cells and incubated at 37° C., 5% CO2 and 5% O2. The medium was changed after 2 days (and every 2 days thereafter) using KSR medium plus 4 ng/ml bFGF. […] Over the course of 8-10 days these colonies continued growing in size. In contrast, control cultures set up in the same way but without OPH109 in the initial culture medium only contained very few hESC colonies, in concordance with the reported poor viability of hESC after single cell dissociation.
After 8-10 days the cells were harvested by preparing a single cell suspension using trypsin/EDTA as described above. Table 3 list the numbers of cells obtained for various cell lines, indicating a 10-15 fold expansion in a single step. The cells could be used for subsequent experiments or further expansion by plating 10,000 cells/cm^2 into culture vessels with fresh feeder layer cells using KSR medium plus 20 ng/ml bFGF and 20 μM OPH109 as the initial culture medium.
In another experiment, single cell suspensions were prepared from hESC cells grown in organ culture dishes using trypsin/EDTA as described above. Cell were then resuspended in 5 ml KSR medium containing 20 ng/ml bFGF and 2.5 μM blebbistatin, a potent, cell permeable inhibitor of myosin II. The cell suspension was then transferred to a T25 culture flask containing fresh, mitomycin C treated human embryonic fibroblast feeder layer cells and incubated at 37° C., 5% CO2 and 5% O2. The medium was changed after 2 days (and every 2 days thereafter) using KSR medium plus 4 ng/ml bFGF. […] Colonies continued to grow in size and density over 8-10 days until the cultures were passaged again for cell counting (summarised in Table 4) and replating of 2,000-10,000 cells/cm^2 into culture vessels with fresh feeder layer cells using KSR medium plus 20 ng/ml bFGF and 2.5 μM blebbistatin as the initial culture medium. Using this method cells were expanded for >10 passages, while maintaining their pluripotency and normal karyotypes.

[2] = system: hESC; assay: Feeder layer-free monolayer hESC culture on collagen I with protectants/modulators; details: for doubling time: collagen I coating + Y-27632 (10 μM), SIVF019 (FIG. 4)
Description: A single cell suspension was prepared similar to Example 4 by first washing a T25 flask with 5 ml PBS followed by trypsinising the cells with 2 ml 0.05% trypsin/5 mM EDTA, incubating at 37° C. for 10 mins and resuspending in 10 ml DMEM medium containing 10% FBS with vigorous pipetting. Cell number and viability was determined using the NucleoCounter and an appropriate number of cells centrifuged at 250×g for 4 mins prior to resuspension in conditioned KSR medium with 20 ng/ml bFGF plus additives. Conditioned KSR medium was produced by incubation of KSR medium on mitomycin-C treated human foetal fibroblasts for 48 hrs prior to harvest and storage at −20° C. As protectants/modulators the following additives were tested: • 1. 10 μM Y-27632 • 2. 20 μM OPH109 • 3. 2.5-10 μM blebbistatin • 4. 20 μM OPH109+2.5-10 μM blebbistatin
Cells were plated in collagen I (Cell Science and Technologies) coated 96 well optical bottom plates (BD) at a density of 2×10^4 cells/cm^2, and incubated at 37° C./5% CO2/5% O2. Media were changed on every 2nd day thereafter. […] This toxic effect could in turn be counteracted by using OPH109 in addition to blebbistatin. After 4-5 days in culture cells were fixed and immunofluorescence stained for the pluripotency markers Oct-3/4, SSEA-4 and Tra-1-81 as well as the early differentiation marker CD29. The cells were imaged and analysed using an IN Cell Analyzer 1000 and IN Cell Developer Toolbox 1.7 software. FIG. 3 summarises the results for 2 cell lines, indicating the ability of protectants/modulators to facilitate feeder-free monolayer culture of undifferentiated hESC. Next, the growth rate of monolayer hESC was assessed by imagining of Hoechst (Invitrogen) stained wells using the IN Cell Analyzer 1000 in 24 hr intervals. Cell number was determined by analysis using IN Cell Developer Toolbox 1.7 and IN Cell Analyzer 1000 Workstation 3.5 software. […] There was no significant difference in cell number or proliferation between uncoated and collagen I coated growth surfaces.

[3] = system: SIVF019 hESC; assay: Feeder free expansion of hESC using monolayer culture; details: SIVF019 (collagenase passaged stock), within 9 days, 3 passages, 10 μM Y-27632 at plating, collagen I
Description: Manually passaged and collagenase passaged hESC lines (Table 1) grown on feeder cells were dissociated into single cells using 0.05% trypsin/5 mM EDTA as described in Example 5. Cells were plated into a collagen I coated plates at ˜2×10^4/cm^2 in Conditioned KSR medium with 20 ng/ml bFGF and 10 μM Y-27632, and incubated at 37° C./5% CO2/5% O2 (passage 1). The medium was changed the following day, then every 2nd day until cells reached ˜80% confluency. Cells were then dissociated into single cells using the 0.05% trypsin/5 mM EDTA protocol, with the exception of incubation with 0.05% trypsin/5 mM EDTA for 3 mins only, counted and plated at ˜2×10^4/cm^2 in the above described medium (passage 2). This process was repeated when cells reached confluency (passage 3). At each of the 3 passages, some of the dissociated cells were plated into 96 well plates for pluripotency assessment as described in Example 6. Within 9 days, the theoretical cell number obtained for SIVF019 (collagenase passaged stock) was 24 fold that originally plated (FIG. 6A). Manually passaged hESC SIVF002, SIVF006 and SIVF021 could also be successfully expanded as a monolayer (FIG. 6B).

[4] = system: hESC; assay: Expansion of single-cell dissociated hESC on feeder cells using protectants in the culture medium; details: Y27632 as protectant in the culture medium, on feeders

C[C@@H](N)[C@H]1CC[C@H](C(=O)Nc2ccncc2)CC1 [Y-27632]
cell viability after dissociation into single cell suspensions ([1]; Y27632 as protectant in the culture medium, on feeders): dramatically increased cell viability | doubling time ([2]; between 24 hrs and 48 hrs post-plating): 11 h | doubling time ([2]; between 48 hrs and 72 hrs post-plating): 17 h | theoretical cell number relative to that originally plated [3]: 24 fold | morphology of the colonies [4]: flat monolayers of small cells with high nuclear to cytoplasmic ratios

CC(C)[C@H](NC(=O)c1ccc2ccccc2n1)C(=O)N[C@@H](CC(=O)O)C(=O)COc1c(F)cccc1F [OPH109, Quinoline-Val-Asp-Difluorophenoxymethylketone]
number of passages cell lines were maintained (typical morphology, pluripotency markers, stable karyotype kept) ([1]; 20 μM OPH109 in initial culture medium, 10,000 cells/cm^2): > 10 passages | expansion per passage ([1]; 20 μM OPH109 in initial culture medium, >10 passages): 10-15 fold | random images (10x objective) in which colonies were observed ([1]; 20 μM OPH109 in initial culture medium, control without OPH109 1 out of 10): 6 out of the 10 | Viable cells after 1 expansion step ([1]; SIVF006, 20 μM OPH109, from 1.23 × 10^5 cells in organ culture dish to T25 flask, 8-10 days): 1.97 × 10^6 cells | Viable cells after 1 expansion step ([1]; SIVF019, 20 μM OPH109, starting cells not determined, T25 flask, 8-10 days): 3.1 × 10^6 cells | Viable cells after 1 expansion step ([1]; SIVF021, 20 μM OPH109, from 2.19 × 10^5 cells in organ culture dish to T25 flask, 8-10 days): 3.00 × 10^6 cells | Viable cells after 1 expansion step ([1]; SIVF022, 20 μM OPH109, from 3.99 × 10^5 cells in organ culture dish to T25 flask, 8-10 days): 4.40 × 10^6 cells | expansion in a single step ([1]; various cell lines, 20 μM OPH109, 8-10 days): 10-15 fold | cell morphology in feeder-free culture ([2]; 20 μM OPH109 by itself, collagen I coated 96 well plates): changed to larger cytoplasm/nuclear ratios indicating cell differentiation

Cc1ccc2c(c1)C(=O)C1(O)CCN(c3ccccc3)C1=N2 (stereo not drawn) [blebbistatin]
number of passages cells were expanded (pluripotency and normal karyotypes maintained) ([1]; 2.5 μM blebbistatin in initial culture medium, 2,000-10,000 cells/cm^2): > 10 passages | Viable cells after 1 expansion step ([1]; SIVF002, 2.5 μM blebbistatin, from 5.7 × 10^4 cells in organ culture dish to T25 flask): 1.5 × 10^6 cells | Viable cells after 1 expansion step ([1]; SIVF019 Exp 1, 2.5 μM blebbistatin, from 6.6 × 10^4 cells in organ culture dish): 3.4 × 10^6 cells | Viable cells after 1 expansion step ([1]; SIVF019 Exp 2, 2.5 μM blebbistatin, from 2.5 × 10^5 cells in organ culture dish): 2.4 × 10^6 cells | Viable cells after 1 expansion step ([1]; SIVF019 Exp 3, 2.5 μM blebbistatin, from 2.5 × 10^5 cells in organ culture dish): 3.4 × 10^6 cells | Viable cells after 1 expansion step ([1]; SIVF024, 2.5 μM blebbistatin, from 2.6 × 10^5 cells in organ culture dish): 1.6 × 10^6 cells | Viable cells after 1 expansion step ([1]; SIVF048, 2.5 μM blebbistatin, from 2.3 × 10^5 cells in organ culture dish): 2.0 × 10^6 cells | protectant strength compared with OPH109 ([1]; allows lower initial plating densities and greater expansion): more powerful protectant than OPH109 | toxicity ([2]; blebbistatin 2.5-10 μM, feeder-free on collagen I): increased toxicity at higher concentrations | concentration at which most potent as protectant/modulator ([2]; tested 2.5-10 μM, feeder-free on collagen I): 2.5 µM
